Legend:
living cells = test: Entry into / staining of living cells, general; type: cell-based; conditions: general summary
gram-positive bacteria = conditions: mild conditions; application Ser. No. 08/047,683; cited from earlier work
tissue culture cells = test: Entry into / staining pattern of tissue culture cells; type: cell-based
Text: In some tissue culture cells, the pattern of staining is different from that observed in plant cells or bacteria. In the former case, cells are usually loaded with a brief pulse of dye, followed by a chase of buffered saline solution. These cells show a pattern of staining first in numerous intracellular compartments; e.g. lysosomes. In addition to staining these organelles first, the dyes also undergo a spectral shift to shorter wavelengths when associated with this "early-labeled compartment." If the same cells are exposed to pulses of higher concentrations of the 5-DAPP/LIVE dyes, the staining appears in the mitochondria (tubular structures that are labeled with rhodamine 123) and then, finally, in the nucleus, where it stains the nucleoli very brightly. Nucleoli are the most prominently stained area of higher eukaryotic cells, while the nuclei and cytosol usually stain in a hazy or punctate pattern in these cells. […] In plant tissues distinct nuclei tend to label uniformly, but there is frequently significant binding of the dye to cell walls. The plant cells are usually dark except for cell walls and nuclei. The characteristic binding morphology obtained using the 5-DAPP/LIVE dyes thus makes them useful in certain circumstances for identifying the type of cell in a mixed population of cells.

gram-negative bacteria = conditions: mild conditions; application Ser. No. 08/047,683; cited from earlier work
[1] = system: epidermal tissue of the bulb, Alium spp.; test: Staining of plant cell tissue (Example 6); type: cell-based; conditions: 10 μM dye, 30 min, room temperature
Description: A small section of tissue from the bulb is removed with a razor blade. 0.5 mL of a 10 μM solution of the 5-DAPP/LIVE dye in distilled water is dispensed into a small glass dish. The epidermal tissue is cut into sections and placed in the dye solution. The tissue is stained for 30 min at room temperature in the dark then the tissue preparation is mounted in the presence of the dye between a coverglass and the slide.

For CCCCCC[n+]1c(-c2ccccc2)c2cc(N)ccc2c2ccc(N)cc21 [hexidium], the membrane permeability (living cells) is listed as “marked enhancement of membrane permeability in all systems”, the “entry into / staining of live cells” value (living cells; several types of cells) is listed as “enters many types of live cells quickly and is bright” and the “staining of live gram-positive bacteria” value (gram-positive bacteria) is listed as “significantly greater”. For the same compound, the “staining of cells loaded to equilibrium / staining pattern” value (tissue culture cells) was “both intense cytoplasmic and nuclear staining”, the “staining of live gram-negative bacteria” value (gram-negative bacteria) was “lightly stain some gram negative organisms” and the “cell wall / surface staining” value [1] was “more hazy surface staining occurs with ethidium and butidium than with hexidium or octidium”.

From patent publication US5437980A, “Phenanthridium dye staining of nucleic acids in living cells” (Molecular Probes, Inc., priority 1993, dated 1995)
